Experimental data as given in patent US6828320B2, “Heterocyclic compounds” (SmithKline Beecham Corporation, priority 1996, dated 2004).
Counter-ions that a name gives are not always drawn. Like-named read-outs stand apart in the source and are kept apart here.

Legend:
[1] = molecular target: T1, c-erbB-2 (baculovirus expressed, recombinant intracellular domain) (Homo sapiens, UniProt P04626); assay: Substrate phosphorylation assay, c-erbB-2; format: biochemical; settings: read-out: Substrate Phosphorylation erbB-2
T1 construct: baculovirus expressed, recombinant constructs of the intracellular domains of c-erbB-2 and c-erbB-4; made in house
T1 sequence (P04626 676-1255 limits assumed): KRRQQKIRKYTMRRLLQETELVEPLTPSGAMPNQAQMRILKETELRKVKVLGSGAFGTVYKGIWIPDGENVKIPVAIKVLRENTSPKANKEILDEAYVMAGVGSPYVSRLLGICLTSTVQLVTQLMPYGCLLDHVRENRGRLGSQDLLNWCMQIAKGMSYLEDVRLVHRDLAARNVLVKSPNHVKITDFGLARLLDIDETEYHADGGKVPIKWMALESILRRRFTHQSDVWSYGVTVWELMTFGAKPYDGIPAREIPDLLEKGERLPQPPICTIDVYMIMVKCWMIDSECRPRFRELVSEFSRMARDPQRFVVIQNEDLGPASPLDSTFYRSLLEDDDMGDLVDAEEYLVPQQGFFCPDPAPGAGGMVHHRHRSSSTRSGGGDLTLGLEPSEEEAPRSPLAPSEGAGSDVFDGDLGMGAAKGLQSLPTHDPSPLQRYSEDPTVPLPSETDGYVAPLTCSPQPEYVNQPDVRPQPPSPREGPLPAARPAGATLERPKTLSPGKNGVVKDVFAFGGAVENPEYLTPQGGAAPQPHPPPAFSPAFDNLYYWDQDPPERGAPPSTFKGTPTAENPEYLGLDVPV
Procedure: (§1) The substrate phosphorylation assays use baculovirus expressed, recombinant constructs of the intracellular domains of c-erbB-2 and c-erbB-4 that are constitutively active and EGFr isolated from solubilised A431 cell membranes. The method measures the ability of the isolated enzymes to catalyse the transfer of the γ-phosphate from ATP onto tyrosine residues in a biotinylated synthetic peptide (Biotin-[…]. […] The reaction is stopped by the addition of EDTA (final concentration 0.15 mM) and a sample is transferred to a streptavidin-coated 96-well plate. The plate is washed and level of phosphotyrosine on the peptide is determined using a Europium-labelled antiphosphotyrosine antibody and quantified with a time-resolved fluorescence technique.

[2] = molecular target: T2, c-erbB-4 (baculovirus expressed, recombinant intracellular domain) (Homo sapiens, UniProt Q15303); assay: Substrate phosphorylation assay, c-erbB-4; format: biochemical
T2 construct: baculovirus expressed, recombinant constructs of the intracellular domains of c-erbB-2 and c-erbB-4; made in house
T2 sequence (Q15303 676-1308 limits assumed): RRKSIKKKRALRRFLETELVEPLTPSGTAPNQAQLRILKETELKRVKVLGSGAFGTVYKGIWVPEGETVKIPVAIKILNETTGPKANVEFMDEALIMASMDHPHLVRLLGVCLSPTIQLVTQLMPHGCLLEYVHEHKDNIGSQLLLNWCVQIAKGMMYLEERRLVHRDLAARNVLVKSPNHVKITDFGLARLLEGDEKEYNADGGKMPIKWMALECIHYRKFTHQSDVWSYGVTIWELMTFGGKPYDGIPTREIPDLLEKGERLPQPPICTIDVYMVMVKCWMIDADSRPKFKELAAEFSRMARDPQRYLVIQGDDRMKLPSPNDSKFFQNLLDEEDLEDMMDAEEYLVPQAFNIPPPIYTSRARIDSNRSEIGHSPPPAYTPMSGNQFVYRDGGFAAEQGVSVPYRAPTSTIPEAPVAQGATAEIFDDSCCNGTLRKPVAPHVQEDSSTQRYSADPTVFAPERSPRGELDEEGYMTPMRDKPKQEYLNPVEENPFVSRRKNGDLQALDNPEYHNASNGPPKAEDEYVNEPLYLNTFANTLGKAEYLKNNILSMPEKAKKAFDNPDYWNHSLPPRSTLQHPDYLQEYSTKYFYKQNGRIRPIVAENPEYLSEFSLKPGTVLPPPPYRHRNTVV
Procedure: as §1

[3] = molecular target: HB4a cell line transformed by over-expression of c-erbB-2 (Homo sapiens, UniProt P04626); assay: Cell proliferation assay, HB4a erbB-2; format: cell-based; settings: 4 days at 37° C., methylene blue staining; read-out: Cell Proliferation HB4a erbB-2
HB4a cell line transformed by over-expression of c-erbB-2, sequence (P04626 whole entry, change not shown): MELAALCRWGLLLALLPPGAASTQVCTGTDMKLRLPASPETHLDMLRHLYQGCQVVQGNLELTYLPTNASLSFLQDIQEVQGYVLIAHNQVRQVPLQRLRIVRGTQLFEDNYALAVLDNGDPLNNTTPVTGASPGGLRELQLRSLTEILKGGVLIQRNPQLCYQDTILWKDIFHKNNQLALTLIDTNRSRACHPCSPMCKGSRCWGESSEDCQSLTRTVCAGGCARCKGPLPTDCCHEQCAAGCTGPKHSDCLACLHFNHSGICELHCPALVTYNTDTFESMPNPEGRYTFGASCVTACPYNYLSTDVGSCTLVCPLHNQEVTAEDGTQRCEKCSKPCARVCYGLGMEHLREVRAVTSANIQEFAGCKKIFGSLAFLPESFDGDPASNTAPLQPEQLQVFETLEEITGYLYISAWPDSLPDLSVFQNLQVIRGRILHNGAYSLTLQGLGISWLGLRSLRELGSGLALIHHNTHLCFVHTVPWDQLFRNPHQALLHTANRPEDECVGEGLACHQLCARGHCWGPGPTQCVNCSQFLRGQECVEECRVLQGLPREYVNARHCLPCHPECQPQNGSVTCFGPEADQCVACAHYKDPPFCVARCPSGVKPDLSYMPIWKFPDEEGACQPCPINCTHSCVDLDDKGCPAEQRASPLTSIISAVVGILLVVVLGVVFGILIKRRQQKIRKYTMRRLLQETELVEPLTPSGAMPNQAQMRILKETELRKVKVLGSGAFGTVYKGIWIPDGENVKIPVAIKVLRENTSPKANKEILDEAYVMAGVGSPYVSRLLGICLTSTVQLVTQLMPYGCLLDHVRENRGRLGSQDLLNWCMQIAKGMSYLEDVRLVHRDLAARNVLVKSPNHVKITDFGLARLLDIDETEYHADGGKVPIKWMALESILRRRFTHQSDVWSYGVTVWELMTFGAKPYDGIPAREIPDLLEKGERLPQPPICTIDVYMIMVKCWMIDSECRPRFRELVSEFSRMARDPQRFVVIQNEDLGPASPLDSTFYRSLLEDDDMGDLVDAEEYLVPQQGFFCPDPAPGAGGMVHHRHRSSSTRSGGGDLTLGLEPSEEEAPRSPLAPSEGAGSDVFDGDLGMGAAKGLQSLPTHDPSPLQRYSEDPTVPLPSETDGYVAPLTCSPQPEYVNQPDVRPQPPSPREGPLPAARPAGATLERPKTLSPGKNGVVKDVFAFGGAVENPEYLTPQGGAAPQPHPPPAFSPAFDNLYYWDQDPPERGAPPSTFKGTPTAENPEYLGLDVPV
Procedure: The cell proliferation assay uses an immortalised human breast epithelial cell line (HB4a) which has been transformed by over-expression of c-erbB-2. Growth of these cells in low serum is dependent upon the c-erbB-2 tyrosine kinase activity. […] Cells are plated at 3000/ well in 96-well plates in 0.1 ml medium and allowed to attach overnight. test compound is added in 0.1 ml medium, with a final concentration of 0.5% DMSO, and the plates incubated for 4 days at 37° C. The cells are then examined microscopically for evidence of morphological detransformation and cell mass is estimated by staining with methylene blue and measuring the absorbance at 620 nm. […] Activity against a range of naturally occurring EGFr or c-erbB-2 over-expressing human tumour cell lines (BT474-breast, HN5-head and neck, N87-gastric and Calu3-lung) is assessed with selected compounds by the same methodology.

[4] = test system: HB4a cell line transfected with ras; assay: Cell proliferation assay, HB4a ras; format: cell-based, human; settings: 4 days at 37° C., methylene blue staining, general toxicity control, read-out: Cell Proliferation HB4a ras
[5] = test system: Calu3-lung tumour cell line; assay: Cell proliferation assay, Calu3; format: cell-based, human; settings: same methodology, 4 days
Procedure: (§2) The cell proliferation assay uses an immortalised human breast epithelial cell line (HB4a) which has been transformed by over-expression of c-erbB-2. Growth of these cells in low serum is dependent upon the c-erbB-2 tyrosine kinase activity. The specificity of the effect of the test compounds on tyrosine kinase dependent growth over general toxicity is assessed by comparison to an HB4a cell line which has been transfected with ras. Cells are plated at 3000/ well in 96-well plates in 0.1 ml medium and allowed to attach overnight. test compound is added in 0.1 ml medium, with a final concentration of 0.5% DMSO, and the plates incubated for 4 days at 37° C. The cells are then examined microscopically for evidence of morphological detransformation and cell mass is estimated by staining with methylene blue and measuring the absorbance at 620 nm. The results are shown in Table 1 below as the IC50 values in nM. Activity against a range of naturally occurring EGFr or c-erbB-2 over-expressing human tumour cell lines (BT474-breast, HN5-head and neck, N87-gastric and Calu3-lung) is assessed with selected compounds by the same methodology. The results are also shown in Table 1 below as the IC50 values in nM.

[6] = test system: HN5-head and neck tumour cell line; assay: Cell proliferation assay, HN5; format: cell-based, human; settings: same methodology, 4 days
Procedure: as §2

[7] = molecular target: T3, EGFr isolated from solubilised A431 cell membranes (Homo sapiens, UniProt P00533); assay: Substrate phosphorylation assay, EGFr; format: biochemical; settings: 30 minutes, room temperature, ATP and peptide at Km concentrations
T3 construct: EGFr isolated from solubilised A431 cell membranes; endogenous in cells; host or cells: A431 cell membranes (solubilised)
T3 sequence (P00533 25-1210): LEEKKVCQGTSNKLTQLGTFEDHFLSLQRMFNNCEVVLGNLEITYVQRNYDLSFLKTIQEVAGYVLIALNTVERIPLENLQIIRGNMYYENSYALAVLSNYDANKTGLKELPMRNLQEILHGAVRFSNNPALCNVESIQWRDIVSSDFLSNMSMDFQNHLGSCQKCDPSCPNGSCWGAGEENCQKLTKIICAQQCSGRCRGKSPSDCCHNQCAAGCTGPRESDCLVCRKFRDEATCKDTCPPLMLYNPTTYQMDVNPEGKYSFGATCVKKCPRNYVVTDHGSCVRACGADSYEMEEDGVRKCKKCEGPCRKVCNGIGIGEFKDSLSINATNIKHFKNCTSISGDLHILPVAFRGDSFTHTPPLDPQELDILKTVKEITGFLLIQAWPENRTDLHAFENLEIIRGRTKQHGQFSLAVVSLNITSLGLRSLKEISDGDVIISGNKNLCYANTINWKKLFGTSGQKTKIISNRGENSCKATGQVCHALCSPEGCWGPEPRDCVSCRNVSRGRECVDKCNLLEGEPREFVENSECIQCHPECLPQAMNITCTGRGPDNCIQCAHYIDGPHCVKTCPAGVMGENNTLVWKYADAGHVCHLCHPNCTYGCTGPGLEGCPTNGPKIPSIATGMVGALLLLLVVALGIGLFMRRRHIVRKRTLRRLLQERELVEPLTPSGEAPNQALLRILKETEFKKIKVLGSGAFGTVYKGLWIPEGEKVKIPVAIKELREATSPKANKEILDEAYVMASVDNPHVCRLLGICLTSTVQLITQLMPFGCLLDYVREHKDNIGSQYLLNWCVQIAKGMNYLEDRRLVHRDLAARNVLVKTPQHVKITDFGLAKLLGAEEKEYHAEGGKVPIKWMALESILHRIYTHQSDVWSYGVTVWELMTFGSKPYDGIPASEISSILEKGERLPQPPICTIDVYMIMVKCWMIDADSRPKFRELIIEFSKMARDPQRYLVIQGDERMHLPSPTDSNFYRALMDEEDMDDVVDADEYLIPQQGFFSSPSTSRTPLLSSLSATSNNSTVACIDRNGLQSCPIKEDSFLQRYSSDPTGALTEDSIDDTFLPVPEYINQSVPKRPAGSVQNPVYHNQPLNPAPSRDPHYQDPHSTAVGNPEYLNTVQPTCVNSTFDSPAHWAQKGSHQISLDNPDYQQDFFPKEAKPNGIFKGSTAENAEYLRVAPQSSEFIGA
Procedure: as §1

[8] = test system: BT474-breast tumour cell line; assay: Cell proliferation assay, BT474; format: cell-based, human; settings: same methodology, 4 days
Procedure: as §2

[9] = test system: N87-gastric tumour cell line; assay: Cell proliferation assay, N87; format: cell-based, human; settings: same methodology, 4 days
Procedure: as §2

c1ccc(COc2ccc(Nc3ncnc4ccc(-c5cccs5)cc34)cc2)cc1 [Example 2, (4-Benzyloxy-phenyl)-(6-(thiophen-2-yl)-quinazolin-4-yl)-amine]
IC50 [1]: 0.021 µM
IC50 [2]: 0.5 µM
GI50 [3]: 1 µM
IC50 ([4]; Homo sapiens, HB4a, 96 h): 8.3 µM
IC50 ([5]; Homo sapiens, Calu-3, 96 h): 4.6 µM
IC50 ([6]; Homo sapiens, 96 h): 26 µM

c1ccc(COc2ccc(Nc3ncnc4ccc(-c5ccc(C6OCCO6)o5)cc34)cc2)cc1 [Example 5]
IC50 [1]: 0.02 µM
IC50 [2]: 0.32 µM
GI50 [3]: 0.4 µM
IC50 ([4]; Homo sapiens, HB4a, 96 h): 19 µM
IC50 ([5]; Homo sapiens, Calu-3, 96 h): 0.78 µM
IC50 ([6]; Homo sapiens, 96 h): 1.4 µM

Cn1cncc1-c1ccc2ncnc(Nc3ccc(OCc4ccccc4)cc3)c2c1 [Example 6, (4-Benzyloxy-phenyl)-(6-(3-methyl-3H-imidazol-4-yl)-quinazolin-4-yl)-amine]
IC50 [7]: 0.68 µM
IC50 [1]: 0.11 µM
IC50 [2]: 1 µM
GI50 [3]: 1.6 µM
IC50 ([4]; Homo sapiens, HB4a, 96 h): 16 µM
IC50 ([8]; Homo sapiens, BT-474, 96 h): 1.9 µM
IC50 ([9]; Homo sapiens, 96 h): 1.8 µM
IC50 ([5]; Homo sapiens, Calu-3, 96 h): 5.8 µM
IC50 ([6]; Homo sapiens, 96 h): 5.2 µM

C1=C(c2ccc3ncnc(Nc4ccc(OCc5ccccc5)cc4)c3c2)OCC1 [Example 7, (4-Benzyloxy-phenyl)-(6-(2,3-dihydrofuran-5-yl)-quinazolin-4-yl)-amine]
IC50 [1]: 0.036 µM
IC50 [2]: 1.5 µM
GI50 [3]: 1.3 µM
IC50 ([4]; Homo sapiens, HB4a, 96 h): 12 µM
IC50 ([5]; Homo sapiens, Calu-3, 96 h): 4.7 µM
IC50 ([6]; Homo sapiens, 96 h): 5.5 µM

CN1CCN(Cc2ccc(-c3ccc4ncnc(Nc5ccc(OCc6ccccc6)cc5)c4c3)o2)CC1 [Example 10]
IC50 [1]: 0.052 µM
IC50 [2]: 0.78 µM
GI50 [3]: 1.5 µM
IC50 ([4]; Homo sapiens, HB4a, 96 h): 7.1 µM
IC50 ([5]; Homo sapiens, Calu-3, 96 h): 2.2 µM
IC50 ([6]; Homo sapiens, 96 h): 2.1 µM

NC(=O)[C@@H]1CCCN1Cc1ccc(-c2ccc3ncnc(Nc4ccc(OCc5ccccc5)cc4)c3c2)o1 [Example 11, (S)-1-(5-(4-(4-Benzyloxy-phenylamino)-quinazolin-6-yl)-furan-2-ylmethyl)-pyrrolidine-2-carboxylicacid amide]
IC50 [7]: 0.16 µM
IC50 [1]: 0.036 µM
IC50 [2]: 0.66 µM
GI50 [3]: 0.58 µM
IC50 ([4]; Homo sapiens, HB4a, 96 h): 14 µM
IC50 ([8]; Homo sapiens, BT-474, 96 h): 0.18 µM
IC50 ([9]; Homo sapiens, 96 h): 0.48 µM
IC50 ([5]; Homo sapiens, Calu-3, 96 h): 0.93 µM
IC50 ([6]; Homo sapiens, 96 h): 0.94 µM

NC(=O)[C@@H]1CCCN1Cc1ccc(-c2ccc3ncnc(Nc4ccc5c(cnn5Cc5ccccc5)c4)c3c2)o1 [Example 18, (S)-1-(5-(4-(1-Benzyl-1H-indazol-5-ylamino)-quinazolin-6-yl)-furan-2-ylmethyl)-pyrrolidine-2-carboxylic acid amide dihydrochloride]
IC50 [1]: 0.045 µM
IC50 [2]: 0.034 µM
GI50 [3]: 0.009 µM
IC50 ([4]; Homo sapiens, HB4a, 96 h): > 50 µM
IC50 ([8]; Homo sapiens, BT-474, 96 h): 0.002 µM
IC50 ([9]; Homo sapiens, 96 h): 0.18 µM
IC50 ([5]; Homo sapiens, Calu-3, 96 h): 0.36 µM
IC50 ([6]; Homo sapiens, 96 h): 0.84 µM

CS(=O)(=O)CCNCc1ccc(-c2ccc3ncnc(Nc4ccc5c(cnn5Cc5ccccc5)c4)c3c2)o1 [Example 19, (1-Benzyl-1H-indazol-5-yl)-(6-(5-((2-methanesulphonyl-ethylamino)-methyl)-furan-2-yl)-quinazolin-4-yl)-amine dihydrochloride]
IC50 [7]: 0.008 µM
IC50 [1]: 0.001 µM
IC50 [2]: 0.24 µM
GI50 [3]: 0.05 µM
IC50 ([4]; Homo sapiens, HB4a, 96 h): 25 µM
IC50 ([8]; Homo sapiens, BT-474, 96 h): 0.11 µM
IC50 ([9]; Homo sapiens, 96 h): 0.38 µM
IC50 ([5]; Homo sapiens, Calu-3, 96 h): 0.92 µM
IC50 ([6]; Homo sapiens, 96 h): 0.67 µM

Cc1nnc(-c2ccc3ncnc(Nc4ccc5c(cnn5Cc5cccc(F)c5)c4)c3c2)o1 [Example 22, (1-(3-Fluorobenzyl)-1H-indazol-5-yl)-(6-(5-methyl-1,3,4-oxadiazol-2-yl)-quinazolin-4-yl)-amine hydrochloride]
IC50 [7]: 0.008 µM
GI50 [3]: 0.43 µM
IC50 ([4]; Homo sapiens, HB4a, 96 h): 27 µM
IC50 ([8]; Homo sapiens, BT-474, 96 h): 0.097 µM
IC50 ([9]; Homo sapiens, 96 h): 0.6 µM
IC50 ([5]; Homo sapiens, Calu-3, 96 h): 2.2 µM
IC50 ([6]; Homo sapiens, 96 h): 0.91 µM

Cc1nnc(-c2ccc3ncnc(Nc4ccc(OCc5ccccc5F)cc4)c3c2)o1 [Example 28, (4-(2-Fluoro-benzyloxy)-phenyl)-(6-(5-methyl-1,3,4-oxadiazol-2-yl)-quinazolin-4-yl)-amine hydrochloride]
IC50 [7]: 0.05 µM
IC50 [1]: 0.007 µM
GI50 [3]: 5.3 µM
IC50 ([4]; Homo sapiens, HB4a, 96 h): > 50 µM
IC50 ([9]; Homo sapiens, 96 h): 8.2 µM

Cc1nnc(-c2ccc3ncnc(Nc4ccc(OCc5cccc(F)c5)cc4)c3c2)o1 [Example 29, hydrochloride]
IC50 [7]: 0.023 µM
IC50 ([1]; 30 minutes, room temperature, ATP and peptide at Km concentrations): 0.003 µM
GI50 [3]: 2.5 µM
IC50 [4]: > 50 µM
IC50 [8]: 0.77 µM
IC50 [9]: 2.4 µM
IC50 [5]: 23 µM
IC50 [6]: 4.4 µM

Cc1nnc(-c2ccc3ncnc(Nc4ccc(S(=O)(=O)c5ccccc5)cc4)c3c2)o1 [Example 30, (4-Benzenesulphonyl-phenyl)-(6-(5-methyl-1,3,4-oxadiazol-2-yl)-quinazolin-4-yl)-amine hydrochloride]
IC50 [7]: 0.038 µM
IC50 [1]: 0.006 µM
GI50 [3]: 5.4 µM
IC50 ([4]; Homo sapiens, HB4a, 96 h): 50 µM
IC50 ([5]; Homo sapiens, Calu-3, 96 h): 18 µM

Cc1nnc(-c2ccc3ncnc(Nc4ccc5c(cnn5Cc5ccccc5)c4)c3c2)o1 [Example 41, (1-Benzyl-1H-indazol-5-yl)-(6-(5-methyl-1,3,4-oxadiazol-2-yl)-quinazolin-4-yl)-amine hydrochloride]
IC50 [7]: 0.002 µM
IC50 [1]: 0.01 µM
IC50 [2]: 1 µM
GI50 [3]: 0.61 µM
IC50 ([4]; Homo sapiens, HB4a, 96 h): 35 µM
IC50 ([8]; Homo sapiens, BT-474, 96 h): 0.26 µM
IC50 ([9]; Homo sapiens, 96 h): 1.4 µM
IC50 ([5]; Homo sapiens, Calu-3, 96 h): 5.3 µM
IC50 ([6]; Homo sapiens, 96 h): 0.97 µM
